Laboratory results: US6716833B2, “Acetylenic α-amino acid-based sulfonamide hydroxamic acid tace inhibitors” (priority 1999, dated 2004)
Where two headings read alike, the source gives them in different places.

Biological target: TNF-α converting enzyme (TACE) (Homo sapiens, UniProt P78536)
Test: TACE inhibition (fluorescent peptidyl substrate)
Assay type: biochemical
[1] = IC 50 nM (In Vitro Inhibition of TACE), Table 15

Sequence of TNF-α converting enzyme (TACE) (P78536 215-824, species assumed): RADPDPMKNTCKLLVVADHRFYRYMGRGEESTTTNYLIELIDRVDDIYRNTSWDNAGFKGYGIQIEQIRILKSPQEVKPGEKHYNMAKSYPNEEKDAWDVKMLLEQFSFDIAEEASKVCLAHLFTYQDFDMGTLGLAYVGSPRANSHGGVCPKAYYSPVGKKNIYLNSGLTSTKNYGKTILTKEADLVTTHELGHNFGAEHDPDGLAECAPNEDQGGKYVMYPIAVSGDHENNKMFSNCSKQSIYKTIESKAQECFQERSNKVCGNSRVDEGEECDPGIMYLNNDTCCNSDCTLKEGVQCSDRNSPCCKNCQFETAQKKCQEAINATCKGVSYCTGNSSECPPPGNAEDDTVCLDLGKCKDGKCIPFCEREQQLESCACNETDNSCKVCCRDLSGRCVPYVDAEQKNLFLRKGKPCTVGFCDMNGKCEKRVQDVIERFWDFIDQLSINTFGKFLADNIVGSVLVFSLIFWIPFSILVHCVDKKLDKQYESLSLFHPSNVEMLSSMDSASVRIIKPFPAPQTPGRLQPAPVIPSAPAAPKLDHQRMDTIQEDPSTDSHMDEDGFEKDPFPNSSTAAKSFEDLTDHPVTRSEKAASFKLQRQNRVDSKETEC

SMILES	IC50 [1] [nM]	also measured
CC#CCOc1ccc(S(=O)(=O)N[C@H](Cc2ccc(F)c(F)c2)C(=O)NO)cc1 [Example 315, (2R)-2-({[4-(But-2-ynyloxy)phenyl]sulfonyl}amino)-3-(3,4-digluorophenyl)-N-hydroxypropanamide]	–	IC50 (read-out: IC 50 nM (In Vitro Inhibition of TACE), Table 15): 5.7 nM
CC#CCOc1ccc(S(=O)(=O)N[C@H](CCCNC(=N)N)C(=O)NO)cc1 [Example 296, (2R)-2-(4-But-2-ynyloxy-benzenesulfonylamino)-5-guanidino-pentanoic acid hydroxyamide]	10.9	–
CC#CCOc1ccc(S(=O)(=O)N[C@H](Cc2cnc[nH]2)C(=O)NO)cc1 [Example 306, (2R)-2-({[4-(But-2-ynyloxy)phenyl]sulfonyl}amino)-N-hydroxy-3-(1H-imidazol-5-yl)propanamide]	8.7	–
CC#CCOc1ccc(S(=O)(=O)NC(CSCNC(C)=O)C(=O)NO)cc1 (stereo not shown) [Example 96]	–	% Inhibition at 1 uM (In Vitro Inhibition of TACE) (Table 15): 22%
CC#CCOc1ccc(S(=O)(=O)N[C@H](CCCNC(=O)Cc2ccccc2)C(=O)NO)cc1 [Example 345, (2R)-2-({[4-(But-2-ynyloxy)phenyl]sulfonyl}amino)-N-hydroxy-5-[(2-phenylacetyl)amino]pentanamide]	4.43	–
CC#CCOc1ccc(S(=O)(=O)N[C@H](CCCCNC(=O)c2cnc3ccccc3c2)C(=O)NO)cc1 [Example 364, N-[(5R)-5-({[4-(But-2-ynyloxy)phenyl]sulfonyl}amino)-6-(hydroxyamino)-6-oxohexyl]quinoline-3-carboxamide]	7.79	–
CC#CCOc1ccc(S(=O)(=O)N[C@H](CCSC)C(=O)NO)cc1 [Example 80]	10.8 ± 3.7	–
CC#CCOc1ccc(S(=O)(=O)N[C@H](CCCCNC(=O)Cc2ccc([N+](=O)[O-])cc2)C(=O)NO)cc1 [Example 362, (2R)-2-({[4-(But-2-ynyloxy)phenyl]sulfonyl}amino)-N-hydroxy-6-{[2-(4-nitrophenyl)acetyl]amino}hexanamide]	4.55	–
CC#CCOc1ccc(S(=O)(=O)N[C@H](CCCCNC(=O)c2ccccc2)C(=O)NO)cc1 [Example 350, N-[(5R)-5-({[4-(But-2-ynyloxy)phenyl]sulfonyl}amino)-6-(hydroxyamino)-6-oxohexyl]benzamide]	6.28	–
CC#CCOc1ccc(S(=O)(=O)NC(Cc2ccc(OCc3ccccc3)cc2)C(=O)NO)cc1 (stereo not shown) [Example 103]	–	% Inhibition at 1 uM (In Vitro Inhibition of TACE) (Table 15): 52.8%
CC#CCOc1ccc(S(=O)(=O)N[C@H](CCCNC(=O)c2ccc(Cl)cc2)C(=O)NO)cc1 [Example 334, N-[(4R)-4-({[4-(But-2-ynyloxy)phenyl]sulfonyl}amino)-5-(hydroxyamino)-5-oxopentyl]-4-chlorobenzamide]	4.7	–
CC#CCOc1ccc(S(=O)(=O)N(C)CC(=O)NO)cc1 [Example 17, 2-[(4-but-2-ynyloxy-Benzenesulfonyl)-methyl-amino]-N-hydroxy-acetamide]	–	IC50 (read-out: TACE IC50): 6.8 nM
CC#CCOc1ccc(S(=O)(=O)N[C@H](CCCCNC(=O)OCc2ccccc2)C(=O)NO)cc1 [Example 309, Benzyl(5R)-5-({[4-(but-2-ynyloxy)phenyl]sulfonyl}amino)-6-(hydroxyamino)-6-oxohexylcarbamate]	11.4	–
CC#CCOc1ccc(S(=O)(=O)N[C@H](Cc2ccc(OCc3ccccc3)cc2)C(=O)NO)cc1 [Example 326, (2R)-3-[4-(Benzyloxy)phenyl]-2-({[4-(but-2-ynyloxy)phenyl]sulfonyl}amino)-N-hydroxypropanamide]	58.6	–
CC#CCOc1ccc(S(=O)(=O)N[C@H](CCCNC(=O)c2ccccc2OC)C(=O)NO)cc1 [Example 342, N-[(4R)-4-({[4-(But-2-ynyloxy)phenyl]sulfonyl}amino)-5-(hydroxyamino)-5-oxopentyl]-2-methoxybenzamide]	4.54	–
CC#CCOc1ccc(S(=O)(=O)N[C@H](CCCNC(=O)NCC)C(=O)NO)cc1 [Example 369]	14.2	–

SMILES	IC50 [1] [nM]	also measured
CC#CCOc1ccc(S(=O)(=O)N[C@@H](CC)C(=O)NO)cc1 [Example 63]	–	% Inhibition at 1 uM (In Vitro Inhibition of TACE) (Table 15): 47.6%
CC#CCOc1ccc(S(=O)(=O)N[C@H](CCCCNC(=O)CCc2ccccc2)C(=O)NO)cc1 [Example 358, (2R)-2-({[4-(But-2-ynyloxy)phenyl]sulfonyl}amino)-N-hydroxy-6-[(3-phenylpropanoyl)amino]hexanamide]	8.84	–
CC#CCOc1ccc(S(=O)(=O)N[C@@H](COCc2ccccc2)C(=O)NO)cc1 [Example 97]	283 ± 42	–
CC#CCOc1ccc(S(=O)(=O)N[C@@H](CC2CCCCC2)C(=O)NO)cc1 [Example 71]	402 ± 55	–
CC#CCOc1ccc(S(=O)(=O)N[C@H](CCCCNC(=O)Cc2ccccc2)C(=O)NO)cc1 [Example 363, (2R)-2-({[4-(But-2-ynyloxy)phenyl]sulfonyl}amino)-N-hydroxy-6-[(2-phenylacetyl)amino]hexanamide]	3.39	–
CC#CCOc1ccc(S(=O)(=O)N[C@H](CCC(=O)O)C(=O)NO)cc1 [Example 304, (4R)-4-({[4-(But-2-ynyloxy)phenyl]sulfonyl}amino)-5-(hydroxyamino)-5-oxopentanoic acid]	28.9	–
CC#CCOc1ccc(S(=O)(=O)N[C@H](CCCNC(=O)c2c(C)noc2C)C(=O)NO)cc1 [Example 338, N-[(4R)-4-({[4-(But-2-ynyloxy)phenyl]sulfonyl)amino)-5-(hydroxyamino)-5-oxopentyl]-3,5-dimethylisoxazole-4-carboxamide]	3.73	–
CC#CCOc1ccc(S(=O)(=O)N[C@H](CCCNC(=N)NS(=O)(=O)c2ccc(C)cc2)C(=O)NO)cc1 [Example 297, (2R)-2-({[4-(2-Butynyloxy)phenyl]sulfonyl}amino)-N-hydroxy-5-[(imino{[(4-methylphenyl)sulfonyl]amino}methyl)amino]pentanamide]	10.9	–
CC#CCOc1ccc(S(=O)(=O)N[C@H](CCC(N)=O)C(=O)NO)cc1 [Example 303, (2R)-2-({[4-(But-2-ynyloxy)phenyl]sulfonyl}amino)-N-hydroxypentanediamide]	27.4	–
CC#CCOc1ccc(S(=O)(=O)N[C@H](CCCCNC(=O)c2ccc(Cl)cc2)C(=O)NO)cc1 [Example 353, N-[(5R)-5-({[4-(But-2-ynyloxy)phenyl]sulfonyl}amino)-6-(hydroxyamino)-6-oxohexyl]-4-chlorobenzamide]	6.1	–
CC#CCOc1ccc(S(=O)(=O)N[C@H](CCCNC(=O)c2ccc3[nH]cnc3c2)C(=O)NO)cc1 [Example 329, N-[(4R)-4-({[4-(But-2-ynyloxy)phenyl]sulfonyl}amino)-5-(hydroxyamino)-5-oxopentyl]-1H-benzimidazole-5-carboxamide]	6.88	–
CC#CCOc1ccc(S(=O)(=O)NC(C(=O)NO)C(C)C)cc1 (stereo not shown) [Example 104]	–	% Inhibition at 1 uM (In Vitro Inhibition of TACE) (Table 15): 38.5%
CC#CCOc1ccc(S(=O)(=O)N[C@H](CCCNC(=O)c2ccccc2)C(=O)NO)cc1 [Example 330, N-[(4R)-4-({[4-(But-2-ynyloxy)phenyl]sulfonyl}amino)-5-(hydroxyamino)-5-oxopentyl]benzamide]	3.58	–
CC#CCOc1ccc(S(=O)(=O)N[C@H](CCCNC(=O)c2ccsc2)C(=O)NO)cc1 [Example 347, N-[(4R)-4-({[4-(But-2-ynyloxy)phenyl]sulfonyl}amino)-5-(hydroxyamino)-5-oxopentyl]thiophene-3-carboxamide]	3.15	–
CC#CCOc1ccc(S(=O)(=O)N[C@H](CCCCN)C(=O)NO)cc1 [Example 308, (2R)-6-Amino-2-({[4-(but-2-ynyloxy)phenyl]sulfonyl}amino)-N-hydroxyhexanamide]	29.5	–
